Where a SMILES comes first, the peptide text is derived from it.

The nature of assay [1]: Induction of TrkA phosphorylation in rat PC12 cells at 3 uM measured after 10 to 30 mins by Western blotting analysis relative to control. The format is functional, PC-12. To be noted: time 10-30 min.
Assay [2] in a line: Neuroprotective activity against chick primary sensory neuron assessed as inhibition of BDNF-mediated neuronal survival. The format is functional, Gallus gallus.
Assay [3] has as its target BDNF/NT-3 growth factors receptor (Homo sapiens) (UniProt Q16620). Description: Agonist activity at human TrkB receptor in HEK293 cells assessed as increase in TrkB phosphorylation at 0.001 to 1 uM relative to control. The class given is cell-based. To be noted: filed as agonist, dose 0.001-1 µM.
Assay [4] shares this target. In words: Agonist activity at human TrkB receptor in HEK293 cells assessed as increase in ERK phosphorylation at 0.001 to 1 uM relative to control. The format is cell-based. To be noted: filed as agonist, dose 0.001-1 µM.
The test system of assay [5] is Rattus norvegicus. In words: Neuroprotective activity against medial cerebral artery occlusion induced cerebral ischemia rat model assessed decrease in infarct volume at 0.1 mg/kg, ip qd administered 4 hrs post reperfusion and measured after 6 days by TTC staining based assay. The format is functional. More on the design: scale not given: the % may be the effect or the level left. Conditions: time 144 hrs.

Assay [6] concerns Rattus norvegicus. Description: Neuroprotective activity against medial cerebral artery occlusion induced cerebral ischemia rat model assessed decrease in infarct volume at 1 mg/kg, ip qd administered 4 hrs post reperfusion and measured after 6 days by TTC staining based assay. The format is functional. More on the design: scale not given: the % may be the effect or the level left. Conditions: time 144 hrs.

In assay [7] the target is Hepatocyte growth factor (Homo sapiens) (UniProt P14210). In words: Activation of HGF in human A549 cells assessed as increase in Met phosphorylation. The class given is cell-based.
Hepatocyte growth factor (Homo sapiens), sequence (P14210 32-494 limits assumed): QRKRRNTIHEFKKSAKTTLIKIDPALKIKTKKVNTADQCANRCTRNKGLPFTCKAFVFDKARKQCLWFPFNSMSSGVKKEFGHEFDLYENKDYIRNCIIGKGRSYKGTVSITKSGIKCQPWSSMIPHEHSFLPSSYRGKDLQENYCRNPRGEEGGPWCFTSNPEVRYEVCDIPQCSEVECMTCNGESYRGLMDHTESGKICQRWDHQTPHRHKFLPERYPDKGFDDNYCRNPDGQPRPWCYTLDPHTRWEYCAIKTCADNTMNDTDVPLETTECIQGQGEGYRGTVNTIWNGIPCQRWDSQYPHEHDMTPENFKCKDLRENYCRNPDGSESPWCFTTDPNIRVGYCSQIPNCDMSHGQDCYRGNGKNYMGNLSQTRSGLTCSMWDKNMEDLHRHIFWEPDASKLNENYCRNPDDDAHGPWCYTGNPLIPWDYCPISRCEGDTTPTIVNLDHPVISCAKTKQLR
Hepatocyte growth factor (Homo sapiens), sequence (P14210 495-728 limits assumed): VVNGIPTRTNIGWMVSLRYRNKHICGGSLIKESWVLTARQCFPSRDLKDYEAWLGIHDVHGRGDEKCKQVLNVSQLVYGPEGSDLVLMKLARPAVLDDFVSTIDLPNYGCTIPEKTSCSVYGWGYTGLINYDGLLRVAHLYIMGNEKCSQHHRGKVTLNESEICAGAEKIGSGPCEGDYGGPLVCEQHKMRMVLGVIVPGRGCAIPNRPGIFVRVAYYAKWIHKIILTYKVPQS

BDNF/NT-3 growth factors receptor (Homo sapiens), sequence (Q16620 32-822 limits assumed): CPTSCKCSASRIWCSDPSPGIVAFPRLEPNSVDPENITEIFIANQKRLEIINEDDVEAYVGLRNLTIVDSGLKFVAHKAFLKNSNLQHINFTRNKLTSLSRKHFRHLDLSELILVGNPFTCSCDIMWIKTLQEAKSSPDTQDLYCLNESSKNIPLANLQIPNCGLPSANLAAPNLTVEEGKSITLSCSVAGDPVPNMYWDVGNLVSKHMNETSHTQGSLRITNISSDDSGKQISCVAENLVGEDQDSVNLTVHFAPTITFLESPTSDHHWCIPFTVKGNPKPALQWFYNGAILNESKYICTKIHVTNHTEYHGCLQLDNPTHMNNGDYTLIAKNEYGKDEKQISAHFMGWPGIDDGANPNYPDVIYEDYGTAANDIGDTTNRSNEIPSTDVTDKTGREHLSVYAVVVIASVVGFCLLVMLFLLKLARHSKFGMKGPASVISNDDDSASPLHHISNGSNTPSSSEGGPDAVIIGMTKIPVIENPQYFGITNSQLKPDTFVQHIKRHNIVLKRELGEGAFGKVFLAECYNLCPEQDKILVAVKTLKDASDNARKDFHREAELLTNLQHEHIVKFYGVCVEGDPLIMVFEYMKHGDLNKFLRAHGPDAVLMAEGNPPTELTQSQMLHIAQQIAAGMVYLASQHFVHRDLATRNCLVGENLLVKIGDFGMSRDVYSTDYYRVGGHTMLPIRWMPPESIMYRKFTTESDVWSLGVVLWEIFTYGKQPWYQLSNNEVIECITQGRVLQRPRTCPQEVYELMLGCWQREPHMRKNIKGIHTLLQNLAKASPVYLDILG

Consider `CC[C@H](C)[C@@H]1NC(=O)[C@H](CC(=O)O)NC(=O)[C@H]([C@@H](C)O)NC(=O)[C@H](N)CSSC[C@H](C(=O)N[C@H](C(=O)NCC(=O)N[C@@H](C)C(=O)N[C@H]2CSSC[C@@H](C(=O)O)NC(=O)[C@H](CCC(N)=O)NC(=O)[C@H](CCCCN)NC(=O)CNC(=O)[C@H](CC(=O)O)NC2=O)[C@@H](C)O)NC(=O)[C@H](CCCCN)NC(=O)CNC(=O)[C@H](CCCCN)NC1=O`, for which, in assay [1], the Activity is roughly 75%.

Take `CC(C)C[C@@H]1NC(=O)[C@H](CCC(N)=O)NC(=O)CNC(=O)[C@H](CCCCN)NC(=O)[C@H](CO)NC(=O)[C@H](C(C)C)NC(=O)[C@@H]2CCCN2C(=O)[C@H](C(C)C)NC(=O)[C@@H](N)CSSC[C@@H](C(=O)O)NC1=O` (HELM PEPTIDE1{C.V.P.V.S.K.G.Q.L.C}$PEPTIDE1,PEPTIDE1,1:R3-10:R3$$$V2.0): the “inhibition (INH)” value in assay [2] turned out to be 50%.

For the compound `CSCC[C@H](NC(=O)[C@H](CCCNC(=N)N)NC(=O)[C@@H]1CCCN1C(=O)[C@H](CC(C)C)NC(=O)[C@H](CO)NC(=O)[C@H](CC(N)=O)NC(=O)CC(N)CC(=O)[C@H](CC(N)=O)NC(=O)[C@H](CO)NC(=O)[C@H](CC(C)C)NC(=O)[C@@H]1CCCN1C(=O)[C@H](CCCNC(=N)N)NC(=O)[C@H](CCSC)NC(=O)[C@@H]1CSSC[C@H](C(N)=O)C(=O)N[C@@H](CC(C)C)C(=O)N[C@@H](CCCNC(=N)N)C(=O)N[C@@H](Cc2c[nH]c3ccccc23)C(=O)N[C@@H](CCCNC(=N)N)C(=O)N[C@@H](CCCNC(=N)N)C(=O)N[C@@H](C(C)C)C(=O)N[C@@H](CCCNC(=N)N)C(=O)N1)C(=O)N[C@H]1CSSC[C@@H](C(=O)N[C@@H](Cc2ccccc2)C(=O)O)NC(=O)[C@H](CC(C)C)NC(=O)[C@H](CCCNC(=N)N)NC(=O)[C@H](Cc2c[nH]c3ccccc23)NC(=O)[C@H](CCCNC(=N)N)NC(=O)[C@H](CCCNC(=N)N)NC(=O)[C@H](C(C)C)NC(=O)[C@H](CCCNC(=N)N)NC1=O` (some centres not stated) (HELM PEPTIDE1{L.R.W.R.R.V.R.C.M.R.P.L.S.[NC(=O)C[C@H](N[*:1])C(=O)CC(N)CC(=O)[*:2]].N.S.L.P.R.M.C.R.V.R.R.W.R.L.C.F}|CHEM1{[NC(=O)[C@@H](CS[*:2])C(=O)[*:1]]}$PEPTIDE1,PEPTIDE1,21:R3-29:R3|PEPTIDE1,CHEM1,1:R1-1:R1|PEPTIDE1,CHEM1,8:R3-1:R2$$$V2.0), the Activity in assay [3] and in assay [4] was 50% throughout.

Compound `NCCCC[C@H](NCCCCCCNC(=O)[C@H](CCCCN)NC(=O)[C@H](CO)NC(=O)CCC(=O)O)C(=O)N[C@@H](CO)C(=O)CCC(=O)O` showed an Activity with Rattus norvegicus [5] of roughly 66%.

In turn, `NCCCC[C@H](NC(=O)[C@H](Cc1c[nH]cn1)NCCCCCCNC(=O)[C@H](Cc1c[nH]cn1)NC(=O)[C@H](CCCCN)NC(=O)CCCO)C(=O)CCCO` had an Activity with Rattus norvegicus [6] of 25%.

In the case of H-VVNGIPTR-OH, in assay [7], the Activity was determined as 25%.

Values taken from ChEMBL document CHEMBL5325458, “Growth factors and their peptide mimetics for treatment of traumatic brain injury” (2023).
